Measured values from patent US12590099B2, “Inhibitors of histone deacetylase useful for the treatment or prevention of HIV infection” (Merck Sharp & Dohme LLC, priority 2018, dated 2026).
Where two headings read alike, the source gives them in different places.

Columns and labels:
[1] = molecular target: T1, Recombinant human HDAC3/SMRT heterodimer (Homo sapiens, UniProt O15379); assay: Human HDAC enzyme inhibitor Fluor-de-Lys assay, HDAC3/SMRT; format: biochemical; settings: recombinant human HDAC3/SMRT, Fluor-de-Lys assay
T1 construct: FLAG (C); made in house

KARN cells (Jurkat 2C4) = assay: cells; format: cell-based; settings: Homo sapiens, Jurkat, luciferase induction, 100% = 2 μM SAHA
How it was run: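 Luminescence (Steady-Glo, 10 min, room temperature) measured next day in KARN Jurkat 2C4 cells given compounds at up to 40 μM final with 0.4% DMSO. Percent activation normalised to DMSO (0%) and 2 μM SAHA (100%), fitted by 4-parameter curve.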

[2] = read-out: Karn EC50 (nM) 0.1% NHS, 0.1% normal human serum
[3] = read-out: Karn EC50 (nM) 5% NHS, 5% normal human serum

T1 sequence (O15379 whole entry): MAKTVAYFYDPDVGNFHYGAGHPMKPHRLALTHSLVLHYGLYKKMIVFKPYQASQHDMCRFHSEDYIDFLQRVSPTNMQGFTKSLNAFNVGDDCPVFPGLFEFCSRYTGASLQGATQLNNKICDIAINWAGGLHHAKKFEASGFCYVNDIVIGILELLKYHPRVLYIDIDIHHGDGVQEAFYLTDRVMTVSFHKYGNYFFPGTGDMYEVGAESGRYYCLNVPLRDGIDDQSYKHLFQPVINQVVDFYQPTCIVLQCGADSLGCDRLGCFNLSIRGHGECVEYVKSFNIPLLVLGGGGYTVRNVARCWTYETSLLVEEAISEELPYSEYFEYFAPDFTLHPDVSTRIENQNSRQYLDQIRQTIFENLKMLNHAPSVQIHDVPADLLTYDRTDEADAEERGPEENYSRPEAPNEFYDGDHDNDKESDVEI
T1 sequence (Q9Y618 1-899 partner limits assumed): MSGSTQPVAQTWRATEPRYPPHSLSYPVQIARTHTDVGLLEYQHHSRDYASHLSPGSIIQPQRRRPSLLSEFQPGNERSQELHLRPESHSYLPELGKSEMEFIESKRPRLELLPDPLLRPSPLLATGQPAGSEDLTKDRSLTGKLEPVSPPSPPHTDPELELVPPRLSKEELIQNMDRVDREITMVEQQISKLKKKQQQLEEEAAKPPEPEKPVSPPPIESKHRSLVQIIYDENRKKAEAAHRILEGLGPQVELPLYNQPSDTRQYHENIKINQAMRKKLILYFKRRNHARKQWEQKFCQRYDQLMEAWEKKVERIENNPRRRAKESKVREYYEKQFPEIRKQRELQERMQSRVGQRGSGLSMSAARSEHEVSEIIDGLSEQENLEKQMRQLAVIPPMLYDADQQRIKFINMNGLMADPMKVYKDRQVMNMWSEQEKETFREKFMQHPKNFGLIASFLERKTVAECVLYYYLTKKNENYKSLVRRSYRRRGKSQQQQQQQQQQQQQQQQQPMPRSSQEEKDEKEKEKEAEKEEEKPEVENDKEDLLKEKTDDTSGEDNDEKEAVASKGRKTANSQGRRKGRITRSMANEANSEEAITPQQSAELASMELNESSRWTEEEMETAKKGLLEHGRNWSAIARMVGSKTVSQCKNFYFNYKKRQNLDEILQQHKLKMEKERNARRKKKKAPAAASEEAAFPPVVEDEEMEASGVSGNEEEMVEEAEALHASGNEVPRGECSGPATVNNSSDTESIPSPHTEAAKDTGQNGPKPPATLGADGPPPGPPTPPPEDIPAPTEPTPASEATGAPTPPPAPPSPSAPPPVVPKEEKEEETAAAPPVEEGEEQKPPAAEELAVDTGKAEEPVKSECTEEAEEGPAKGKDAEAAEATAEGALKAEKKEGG

Structure (SMILES) | IC50 [1] [nM] | EC50 (KARN cells (Jurkat 2C4); [2]) [nM] | EC50 (KARN cells (Jurkat 2C4); [3]) [nM]
CCC(=O)CCCCC[C@H](NC(=O)C1=NOC2(CCN(CC3CC3)CC2)C1)c1ncc(-c2cc3ccc(=O)n(C)c3cc2F)o1 [Compound 387] | 48.1 | 1540 | 1700
CCC(=O)CCCCC[C@H](NC(=O)C1=NOC2(CCN(C)CC2)C1)c1ncc(-c2cc3ccc(=O)n(C)c3cc2F)o1 [Compound 386] | 12.4 | 934 | 1060
CCC(=O)CCCCC[C@H](NC(=O)[C@H]1CC12CCN(C)CC2)c1ncc(-c2cc3ccc(N(C)C)nc3cc2OC)o1 [Compound 406] | 1.05 | 280 | 279
